From paper PMC10879502, “Linking ATP and allosteric sites to achieve superadditive binding with bivalent EGFR kinase inhibitors” (Communications Chemistry, 2024)

What was measured:
Experiment in all cases: KINOMEscan
Format in all cases: binding
Conditions in all cases: 1 μM
BMPR1A = BMPR1A (Homo sapiens, UniProt P36894)
BRAF(V600E) = molecular target: T1, BRAF(V600E) (Homo sapiens, UniProt P15056, V600E)
T1 construct: purchased Eurofins DiscoverX Corporation (KINOMEscan)

CAMK4 = molecular target: T2, CAMK4 (Homo sapiens, UniProt Q16566)
T2 construct: purchased Eurofins DiscoverX Corporation (KINOMEscan)

CDK11 = CDK11 (Homo sapiens, UniProt Q9BWU1)
CDK4 = CDK4 (Homo sapiens, UniProt P11802)
CIT = CIT (Homo sapiens, UniProt O14578)
CLK4 = CLK4 (Homo sapiens, UniProt Q9HAZ1)
CSNK1G2 = molecular target: T3, CSNK1G2 (Homo sapiens, UniProt P78368)
T3 construct: purchased Eurofins DiscoverX Corporation
T3 sequence (P78368 whole entry): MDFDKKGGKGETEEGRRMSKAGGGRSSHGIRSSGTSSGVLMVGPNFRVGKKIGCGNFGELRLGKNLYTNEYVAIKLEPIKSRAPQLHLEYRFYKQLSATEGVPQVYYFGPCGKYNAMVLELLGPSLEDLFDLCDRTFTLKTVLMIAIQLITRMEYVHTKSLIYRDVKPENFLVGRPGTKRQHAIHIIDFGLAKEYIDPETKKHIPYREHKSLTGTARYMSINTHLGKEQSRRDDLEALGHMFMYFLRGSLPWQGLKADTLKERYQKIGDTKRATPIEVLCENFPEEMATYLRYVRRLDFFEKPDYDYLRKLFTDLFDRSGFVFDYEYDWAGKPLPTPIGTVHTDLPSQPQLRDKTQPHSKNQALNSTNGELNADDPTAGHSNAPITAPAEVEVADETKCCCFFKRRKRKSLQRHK

DAPK3 = molecular target: T4, DAPK3 (Homo sapiens, UniProt O43293)
T4 construct: purchased Eurofins DiscoverX Corporation

EGFR = EGFR (Homo sapiens, UniProt P00533)
EGFR(L747-T751del+Sins) = system: EGFR(L747-T751del+Sins)
EPHA4 = EPHA4 (Homo sapiens, UniProt P54764)
EPHB2 = EPHB2 (Homo sapiens, UniProt P29323)
FGFR3(G697C) = FGFR3(G697C) (Homo sapiens, UniProt P22607, G697C)
FLT3(D835V) = FLT3(D835V) (Homo sapiens, UniProt P36888, D835V)
HUNK = molecular target: T5, HUNK (Homo sapiens, UniProt P57058)
T5 construct: purchased Eurofins DiscoverX (KINOMEscan)

IRAK4 = molecular target: T6, IRAK4 (Homo sapiens, UniProt Q9NWZ3)
T6 construct: purchased Eurofins DiscoverX (KINOMEscan)

[1] = molecular target: T7, JAK1(JH1domain-catalytic) (Homo sapiens, UniProt P23458)
T7 construct: JAK1(JH1domain-catalytic); purchased Eurofins DiscoverX (KINOMEscan)

JNK2 = molecular target: T8, JNK2 (Homo sapiens, UniProt P45984)
T8 construct: purchased Eurofins DiscoverX (KINOMEscan)
T8 sequence (P45984 whole entry): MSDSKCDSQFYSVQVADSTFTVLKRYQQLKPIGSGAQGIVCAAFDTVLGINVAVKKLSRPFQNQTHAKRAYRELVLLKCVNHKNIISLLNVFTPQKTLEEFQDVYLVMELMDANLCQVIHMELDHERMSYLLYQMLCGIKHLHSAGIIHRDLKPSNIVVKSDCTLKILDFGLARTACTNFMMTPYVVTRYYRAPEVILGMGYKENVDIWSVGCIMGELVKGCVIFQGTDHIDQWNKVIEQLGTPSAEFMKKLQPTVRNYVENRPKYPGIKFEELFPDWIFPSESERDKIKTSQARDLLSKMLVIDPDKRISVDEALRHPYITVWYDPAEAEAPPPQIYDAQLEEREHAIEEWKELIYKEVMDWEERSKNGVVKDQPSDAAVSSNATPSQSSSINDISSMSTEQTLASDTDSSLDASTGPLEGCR

KIT = molecular target: T9, KIT (Homo sapiens, UniProt P10721)
T9 construct: purchased Eurofins DiscoverX (KINOMEscan)
T9 sequence (P10721 26-976): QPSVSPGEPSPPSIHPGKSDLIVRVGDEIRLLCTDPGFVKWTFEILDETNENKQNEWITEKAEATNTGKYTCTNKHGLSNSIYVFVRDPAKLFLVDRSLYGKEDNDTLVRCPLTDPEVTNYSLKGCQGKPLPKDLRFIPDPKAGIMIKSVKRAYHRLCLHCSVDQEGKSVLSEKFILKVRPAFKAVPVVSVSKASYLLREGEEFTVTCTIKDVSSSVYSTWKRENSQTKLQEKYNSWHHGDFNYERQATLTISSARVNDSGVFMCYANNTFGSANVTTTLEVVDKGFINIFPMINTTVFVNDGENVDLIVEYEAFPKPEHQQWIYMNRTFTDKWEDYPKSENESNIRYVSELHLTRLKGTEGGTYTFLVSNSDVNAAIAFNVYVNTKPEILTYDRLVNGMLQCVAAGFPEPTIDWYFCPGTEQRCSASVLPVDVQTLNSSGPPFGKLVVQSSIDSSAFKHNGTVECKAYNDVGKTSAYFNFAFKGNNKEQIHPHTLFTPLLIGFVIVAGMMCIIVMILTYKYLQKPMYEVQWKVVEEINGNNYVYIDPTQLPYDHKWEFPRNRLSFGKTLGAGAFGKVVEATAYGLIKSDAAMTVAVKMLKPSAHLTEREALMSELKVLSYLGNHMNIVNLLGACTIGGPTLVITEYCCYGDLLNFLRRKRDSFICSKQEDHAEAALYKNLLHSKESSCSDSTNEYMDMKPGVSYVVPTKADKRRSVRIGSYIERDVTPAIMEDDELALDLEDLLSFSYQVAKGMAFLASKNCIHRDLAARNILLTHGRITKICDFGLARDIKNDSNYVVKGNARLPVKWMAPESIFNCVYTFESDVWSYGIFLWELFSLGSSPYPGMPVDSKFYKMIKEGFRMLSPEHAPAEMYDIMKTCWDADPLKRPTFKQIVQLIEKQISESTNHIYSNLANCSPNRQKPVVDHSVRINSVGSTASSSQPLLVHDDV

KIT(V559D) = molecular target: T10, KIT(V559D) (Homo sapiens, UniProt P10721, V559D)
T10 construct: purchased Eurofins DiscoverX Corporation
T10 sequence (P10721 26-976 V559D): as the sequence (P10721 26-976) above, with V534D counted along it

LATS2 = molecular target: T11, LATS2 (Homo sapiens, UniProt Q9NRM7)
T11 construct: purchased Eurofins DiscoverX Corporation

MARK4 = molecular target: T12, MARK4 (Homo sapiens, UniProt Q96L34)
T12 construct: purchased Eurofins DiscoverX Corporation

MAST1 = molecular target: T13, MAST1 (Homo sapiens, UniProt Q9Y2H9)
T13 construct: purchased Eurofins DiscoverX Corporation
T13 sequence (Q9Y2H9 whole entry): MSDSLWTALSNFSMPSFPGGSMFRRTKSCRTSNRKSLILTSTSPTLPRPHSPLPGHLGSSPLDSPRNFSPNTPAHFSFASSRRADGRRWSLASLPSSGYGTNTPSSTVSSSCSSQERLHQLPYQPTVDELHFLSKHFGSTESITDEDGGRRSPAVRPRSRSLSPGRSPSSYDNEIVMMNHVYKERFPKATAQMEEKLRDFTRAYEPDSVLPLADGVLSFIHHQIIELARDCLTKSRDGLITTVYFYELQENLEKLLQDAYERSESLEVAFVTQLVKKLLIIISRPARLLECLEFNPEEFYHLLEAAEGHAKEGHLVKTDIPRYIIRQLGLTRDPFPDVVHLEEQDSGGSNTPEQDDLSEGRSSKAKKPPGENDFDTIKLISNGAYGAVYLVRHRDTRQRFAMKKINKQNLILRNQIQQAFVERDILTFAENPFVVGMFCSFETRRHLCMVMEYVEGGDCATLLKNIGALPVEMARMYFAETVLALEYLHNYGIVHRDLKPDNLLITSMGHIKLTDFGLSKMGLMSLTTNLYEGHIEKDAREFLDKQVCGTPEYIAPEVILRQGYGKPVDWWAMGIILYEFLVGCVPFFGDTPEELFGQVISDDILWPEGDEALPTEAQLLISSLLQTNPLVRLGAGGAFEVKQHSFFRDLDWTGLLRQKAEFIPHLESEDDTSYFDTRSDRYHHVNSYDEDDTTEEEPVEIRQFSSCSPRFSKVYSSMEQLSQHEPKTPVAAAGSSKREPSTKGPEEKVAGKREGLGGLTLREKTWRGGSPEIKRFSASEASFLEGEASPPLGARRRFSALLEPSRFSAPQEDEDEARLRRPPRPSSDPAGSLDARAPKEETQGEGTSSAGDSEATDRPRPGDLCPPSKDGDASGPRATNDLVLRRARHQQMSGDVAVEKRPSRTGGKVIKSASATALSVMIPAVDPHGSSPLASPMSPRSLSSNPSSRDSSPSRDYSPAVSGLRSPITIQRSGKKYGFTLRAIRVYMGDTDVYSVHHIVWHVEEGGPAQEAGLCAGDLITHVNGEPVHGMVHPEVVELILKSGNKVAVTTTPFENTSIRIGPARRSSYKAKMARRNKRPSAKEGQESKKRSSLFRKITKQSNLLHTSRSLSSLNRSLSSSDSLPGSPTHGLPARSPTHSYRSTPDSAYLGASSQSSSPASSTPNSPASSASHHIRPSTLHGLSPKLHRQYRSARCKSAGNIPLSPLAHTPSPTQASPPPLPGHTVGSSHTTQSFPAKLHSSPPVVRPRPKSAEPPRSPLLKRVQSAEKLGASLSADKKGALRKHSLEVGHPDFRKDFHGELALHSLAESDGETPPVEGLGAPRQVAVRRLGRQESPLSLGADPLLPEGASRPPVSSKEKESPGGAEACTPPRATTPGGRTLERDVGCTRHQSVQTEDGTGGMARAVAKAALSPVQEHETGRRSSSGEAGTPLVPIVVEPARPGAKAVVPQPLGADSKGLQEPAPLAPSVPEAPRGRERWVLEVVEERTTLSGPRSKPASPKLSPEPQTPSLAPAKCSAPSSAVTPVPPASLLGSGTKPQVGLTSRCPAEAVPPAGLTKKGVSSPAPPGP

MET = molecular target: T14, MET (Homo sapiens, UniProt P08581)
T14 construct: purchased Eurofins DiscoverX Corporation

MKK7 = molecular target: T15, MKK7 (Homo sapiens, UniProt O14733)
T15 construct: purchased Eurofins DiscoverX Corporation

MST1R = molecular target: T16, MST1R (Homo sapiens, UniProt Q04912)
T16 construct: purchased Eurofins DiscoverX Corporation

MUSK = molecular target: T17, MUSK (Homo sapiens, UniProt O15146)
T17 construct: purchased Eurofins DiscoverX Corporation

MYO3B = molecular target: T18, MYO3B (Homo sapiens, UniProt Q8WXR4)
T18 construct: purchased Eurofins DiscoverX Corporation

p38-beta = p38-beta (Homo sapiens, UniProt Q15759)
PDGFRA = PDGFRA (Homo sapiens, UniProt P16234)
PDPK1 = PDPK1 (Homo sapiens, UniProt O15530)
PIK3CA(M1043I) = PIK3CA(M1043I) (Homo sapiens, UniProt P42336, M1043I)
PRKD2 = PRKD2 (Homo sapiens, UniProt Q9BZL6)
PYK2 = PYK2 (Homo sapiens, UniProt Q14289)
S6K1 = S6K1 (Homo sapiens, UniProt P23443)
SGK = SGK (Homo sapiens, UniProt O00141)
SGK2 = SGK2 (Homo sapiens, UniProt Q9HBY8)
STK36 = STK36 (Homo sapiens, UniProt Q9NRP7)
TLK1 = molecular target: T19, TLK1 (Homo sapiens, UniProt Q9UKI8)
T19 construct: purchased Eurofins DiscoverX Corporation
T19 sequence (Q9UKI8 whole entry): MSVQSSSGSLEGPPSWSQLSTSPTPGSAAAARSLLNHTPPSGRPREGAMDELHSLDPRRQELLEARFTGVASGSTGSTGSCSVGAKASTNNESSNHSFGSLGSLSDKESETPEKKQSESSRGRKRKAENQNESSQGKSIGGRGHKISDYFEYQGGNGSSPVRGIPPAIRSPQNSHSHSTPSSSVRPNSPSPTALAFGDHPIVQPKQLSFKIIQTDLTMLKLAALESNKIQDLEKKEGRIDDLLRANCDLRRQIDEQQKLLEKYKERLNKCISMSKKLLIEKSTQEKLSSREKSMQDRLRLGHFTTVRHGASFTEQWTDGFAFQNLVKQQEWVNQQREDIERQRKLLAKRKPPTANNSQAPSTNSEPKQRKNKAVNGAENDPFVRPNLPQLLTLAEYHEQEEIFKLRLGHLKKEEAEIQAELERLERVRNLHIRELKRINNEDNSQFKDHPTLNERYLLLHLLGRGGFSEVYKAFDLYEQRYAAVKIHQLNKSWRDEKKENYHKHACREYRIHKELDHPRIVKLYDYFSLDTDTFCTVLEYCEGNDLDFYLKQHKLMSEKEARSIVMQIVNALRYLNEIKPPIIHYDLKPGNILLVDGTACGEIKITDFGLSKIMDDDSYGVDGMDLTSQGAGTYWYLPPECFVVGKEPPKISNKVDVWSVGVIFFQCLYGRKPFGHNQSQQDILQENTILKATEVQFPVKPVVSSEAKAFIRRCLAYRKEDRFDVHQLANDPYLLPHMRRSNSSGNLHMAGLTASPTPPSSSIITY

TRKB = molecular target: T20, TRKB (Homo sapiens, UniProt Q16620)
T20 construct: purchased Eurofins DiscoverX Corporation
T20 sequence (Q16620 32-822): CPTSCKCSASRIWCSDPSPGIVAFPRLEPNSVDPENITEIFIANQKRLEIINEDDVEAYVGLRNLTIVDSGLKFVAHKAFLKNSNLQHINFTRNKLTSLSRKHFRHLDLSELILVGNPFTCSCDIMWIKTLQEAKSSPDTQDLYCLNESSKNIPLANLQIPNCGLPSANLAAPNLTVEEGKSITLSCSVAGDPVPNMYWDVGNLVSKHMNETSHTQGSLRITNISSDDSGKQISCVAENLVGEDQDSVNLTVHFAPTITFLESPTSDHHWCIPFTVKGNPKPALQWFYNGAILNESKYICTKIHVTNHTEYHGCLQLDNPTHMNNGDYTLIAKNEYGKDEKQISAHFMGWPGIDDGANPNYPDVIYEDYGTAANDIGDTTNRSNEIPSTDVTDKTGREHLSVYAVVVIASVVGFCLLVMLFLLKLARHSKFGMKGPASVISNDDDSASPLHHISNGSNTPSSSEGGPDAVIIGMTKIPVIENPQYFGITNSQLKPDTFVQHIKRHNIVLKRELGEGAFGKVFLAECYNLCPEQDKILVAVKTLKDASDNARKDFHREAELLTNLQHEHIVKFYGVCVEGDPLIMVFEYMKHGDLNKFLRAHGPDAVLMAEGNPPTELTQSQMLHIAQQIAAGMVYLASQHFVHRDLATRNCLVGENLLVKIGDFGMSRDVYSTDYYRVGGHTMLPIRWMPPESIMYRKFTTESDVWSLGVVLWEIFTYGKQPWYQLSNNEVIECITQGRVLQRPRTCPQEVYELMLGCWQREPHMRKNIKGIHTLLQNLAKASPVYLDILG

TRPM6 = molecular target: T21, TRPM6 (Homo sapiens, UniProt Q9BX84)
T21 construct: purchased Eurofins DiscoverX Corporation

TTK = TTK (Homo sapiens, UniProt P33981)

Compound: C=CC(=O)Nc1ccc(OC)c(Nc2cc(-c3[nH]c(CC)nc3-c3cccc(NC(=O)c4cccc5c4NC(=O)c4ccccc4N5)c3)ccn2)c1 [Compound 4]
- POC (BMPR1A): 85% of control
- POC (BRAF(V600E)): 100% of control
- POC (CAMK4): 99% of control
- POC (CDK11): 100% of control
- POC (CDK4): 100% of control
- POC (CIT): 6.3% of control
- POC (CLK4): 100% of control
- POC (CSNK1G2): 91% of control
- POC (DAPK3): 62% of control
- POC (EGFR): 17% of control
- POC (EGFR(L747-T751del+Sins)): 7.6% of control
- POC (EPHA4): 95% of control
- POC (EPHB2): 100% of control
- POC (FGFR3(G697C)): 100% of control
- POC (FLT3(D835V)): 100% of control
- POC (HUNK): 32% of control
- POC (IRAK4): 43% of control
- POC [1]: 91% of control
- POC (JNK2): 78% of control
- POC (KIT): 100% of control
- POC (KIT(V559D)): 100% of control
- POC (LATS2): 62% of control
- POC (MARK4): 92% of control
- POC (MAST1): 100% of control
- POC (MET): 69% of control
- POC (MKK7): 31% of control
- POC (MST1R): 85% of control
- POC (MUSK): 100% of control
- POC (MYO3B): 31% of control
- POC (p38-beta): 59% of control
- POC (PDGFRA): 69% of control
- POC (PDPK1): 84% of control
- POC (PIK3CA(M1043I)): 55% of control
- POC (PRKD2): 62% of control
- POC (PYK2): 100% of control
- POC (S6K1): 100% of control
- POC (SGK): 86% of control
- POC (SGK2): 83% of control
- POC (STK36): 30% of control
- POC (TLK1): 87% of control
- POC (TRKB): 100% of control
- POC (TRPM6): 99% of control
- POC (TTK): 72% of control
